Test results from patent US11376302B2, “Methods for treating depression and major depressive disorder” (priority 2017, dated 2022).
Entries after “also recorded” stand apart in the source; their conditions may differ.

How the values were obtained:
[1] = test system: global protein synthesis in the hippocampus; assay: SUnSET measurement of global protein synthesis in brain tissue after injection; type: in vivo, mouse
Description: Protein synthesis was measured by the SUnSET method. After pharmacological manipulation, mice were sacrificed by cervical dislocation, brains were removed, and the hippocampi were rapidly dissected, immersed in liquid nitrogen, and stored at −80° C. until further use. Hippocampi were homogenized using 20 strokes of a pre-chilled glass homogenizer with 600 μl of lysis buffer containing 50 mM Tris, pH 7.8, 240 mM KCl, 10 mM MgCl2, 250 mM D-sucrose, 2% Triton X-100, 20 μg/ml emetine, 5 mM DTT, 100 U/ml Rnasin (Promega), and protease inhibitor mixture without EDTA (Roche). Samples were centrifuged for 5 min at 16,100 g at 4° C. and supernatant was incubated with 100 g/ml puromycin for 10 min at 4° C. An equal volume of 2×SDS sample buffer (10% glycerol, 5% β-mercaptoethanol, 4% SDS, 120 mM Tris-HCl, pH 6.8) was added to the samples and then boiled for 10 min at 100° C. Protein concentrations were determined using the BCA protein assay (Thermo), and samples were stored at −20° C. until further use. Puromycin incorporation was detected by western blotting using 12D10 antibody for puromycin (1:1000, Millipore).

[2] = cited from earlier work
mice [3] = assay: Tail suspension test (TST); type: in vivo, mouse; settings: C57BL/6 mice, Tatcont then ketamine, test 24 hours later
Description: Custom made clear hollow cylinders (4 cm length, 1.2 cm inner diameter, 1 g) from polycarbonate tubing were placed around the tails of mice to prevent tail climbing behavior. Tape was adhered to the tails of mice on one end, and the other end of the tape was adhered to a custom designed chamber with a white background. Mice were video recorded for 6 minute and the entire 6 minute session was scored for immobility. Total immobility time (seconds) is shown in the results.

mice [4] = assay: Novelty suppressed feeding (NSF) test; type: in vivo, mouse; settings: C57BL/6 mice, ketamine injection
Description: Novelty Suppressed Feeding (NSF)
After receiving the treatments mice were subjected to NSF. Briefly, mice were food deprived for 14 h and then placed in a temporary home cage for 30 min. During the test, mice were placed in a square arena 50×50 cm with bright room light. A food pellet was placed in the center of an open field. Each trial was 10 min in duration. Animal behavior was recorded, and latency to feeding (s) was measured.

mice [5] = assay: Forced swim test (FST); type: in vivo, mouse
Description: After receiving treatments mice were subjected to FST. Briefly, mice were introduced into a transparent glass beaker (26 cm×18 cm) containing 4 liters deep water at 24° C. and were video-recorded for 6 minutes. The last 4 min were scored for immobility. Total immobility time (in seconds) is shown in the results.

COc1ccc(C[C@H]2NC[C@H](O)[C@H]2OC(C)=O)cc1 [anisomycin]
protein synthesis ([1]; anisomycin 120 mg/kg b.w.): blocked protein synthesis | ketamine-induced protein synthesis ([1]; anisomycin 120 mg/kg b.w. with ketamine): blocked

CNC1(c2ccccc2Cl)CCCCC1=O (stereo not drawn) [ketamine]
persistence of antidepressant effect ([2]; human patients, single intravenous administration): persists for many hours to days | reduction of depression in human patients ([2]; single intravenous administration): sufficient to reduce depression | side effects of infusions in humans ([2]; single or repeated infusions, lasting a few minutes to hours): acute dissociative and psychotomimetic effects | immobility time in the TST (mice [3]): shorter immobility time | latency to feeding in the novelty suppressed feeding test (mice [4]): reduced the latency to feeding | immobility time in the FST (mice [5]; C57BL/6 mice, Tatcont then ketamine, test 24 hours later): shorter immobility time | immobility time in the forced swim test (mice [5]; C57BL/6 mice, ketamine IP (5 mg per kg b.w. in Example 1), short-term test): reduced the immobility time; also recorded: shorter immobility time | immobility time in the FST (mice [5]; WT littermates, 30 minutes after ketamine): reduced the immobility time | immobility time in FST (mice [5]; WT mice, 24 hours after ketamine injection): reduced immobility time | immobility time in the FST (mice [5]; eEF2K-KO mice, 30 minutes after ketamine): no difference in immobility | immobility time in FST (mice [5]; eEF2K-KO mice, 24 hours after injection): no difference | immobility time in FST (mice [5]; ketamine 5 mg/kg b.w., FST 24 hours later, C57BL/6 mice): shorter immobility time | immobility time in FST (mice [5]; ketamine 10 mg/kg b.w., FST 24 hours later, C57BL/6 mice): shorter immobility time
